Measured values from publication PMC6967409 (Frontiers in Chemistry, 2020).
Values joined by “and” are separate entries in the source; they are usually repeats but may differ in a detail not shown here. Identical values can stand only once. Like-named read-outs stand apart in the source and are kept apart here.

Experiments:
[1] = tested on: P. berghei ANKA GFP-Luc-SMcon sporozoites; experiment: P. berghei-luciferase liver stage bioluminescence assay (causal prophylactic mode) in HepG2-CD81 cells; type: cell-based, Plasmodium berghei
Procedure: (§1) Briefly, HepG2-CD81 cells were seeded into 1,536 well plates containing 50 nL of test and control compounds diluted into DMSO. […] Next, 2 μL of luciferin reagent (Promega BrightGlo) was added to each well and luciferase activity was detected using a Perkin Elmer Envision plate reader. […] In parallel, plates were processed without sporozoites for HepG2 toxicity measurements.
(§2) In continuation of the transmission blocking theme, it is important to establish activities against liver stage parasites. […] This assay uses ultra-high-throughput screening methods optimized for a 1536-well format and a HepG2 human hepatoma cell line. […] To establish selectivity of the compounds for the parasite in the liver stage of infection, cytotoxicity was determined by measuring bioluminescence from the reaction between free ATP of compound-treated, uninfected hepatocytes and a luciferase reporter system.

[2] = HepG2 cytotoxicity bioluminescence assay (CellTiterGlo, ATP); type: cell-based, human; settings: human, uninfected HepG2-CD81 cells
Procedure: as §1, §2

HepG2 cells = experiment: as above; type: cell-based, human; settings: two biological replicates listed in one cell
Procedure: as §1, §2

P. falciparum K1 = experiment: Proliferative (SYBR Green I) assay, asexual parasites, 96 h; type: cell-based; settings: Plasmodium falciparum, ±SEM
Procedure: (§3) P. falciparum parasites (NF54, K1, and W2) were cultured in vitro in human erythrocytes (A^+ or O^+) under 90% N2, 5% CO2, and 5% O2 atmospheric conditions with supplemented RPMI 1640 media (Sigma Aldrich) containing Albumax II, as previously described (Verlinden et al., [2011]). This study was carried out according the guidelines set out by the Faculty of Health Sciences Ethical Committee, Ethical Clearance no. EC-120821/077. The protocol was approved by the Faculty of Health sciences ethical committee at the University of Pretoria. All subjects gave written informed consent in accordance with the Declaration of Helsinki. Parasite proliferation was monitored microscopically using Giemsa stained smears. Synchronized ring stage parasites (>95%) were obtained using a 5% D-sorbitol (Sigma Aldrich) treatment. […] Gametocyte cultures were kept stationary under 90% N2, 5% CO2, and 5% O2 atmospheric conditions at 37°C and treated with 50 mM N-acetyl-glucosamine (NAG) to eliminate residual invasion of asexual parasites.
(§4) Working solutions of the derivatives were prepared from a 10 mM stock solution in 100% DMSO in supplemented RPMI 1640 media containing Albumax II with a final DMSO concentration of <0.1%, previously determined as being non-toxic to intraerythrocytic asexual parasites and gametocytes. Dose responses were assayed using a two-fold serial drug dilution on in vitro >95% ring stage intraerythrocytic P. falciparum parasites at 37°C under 90% N2, 5% CO2, and 5% O2 atmospheric conditions, detecting both parasite lactate dehydrogenase (pLDH) activity as a metabolic marker following a 48 h drug exposure (1.5–2% parasitemia and 2% hematocrit; Makler et al., [1993]) and SYBR Green I fluorescence as proliferative marker following a 96 h drug exposure (1% parasitemia and 1% hematocrit). […] Data analysis was performed using GraphPad Prism 7.

P. falciparum NF54 [3] = experiment: as above; type: cell-based; settings: Plasmodium falciparum, ±SEM
Procedure: as §3, §4

P. falciparum W2 = experiment: as above; type: cell-based; settings: Plasmodium falciparum, ±SEM
Procedure: as §3, §4

[4] = Cytotoxicity, Cytoselect LDH cytotoxicity assay kit; type: cell-based; settings: human, HepG2 cells
Procedure: (§5) Cytotoxicity (EC50) was determined against Chinese hamster ovarian (CHO) using a 3-(4,5-dimethylthiazol-2-yl)-2,5-diphenyltetrazolium bromide (MTT) assay and hepatocellular carcinoma cells (HepG2) using the Cytoselect LDH cytotoxicity assay kit (Cell Biolabs).

[5] = tested on: P. falciparum NF54 early stage gametocytes (>90% stage I–III); experiment: Gametocytocidal luciferase reporter assay, early stage, 48 h; type: cell-based; settings: Plasmodium falciparum, NF54, 48 h, read-out: Early Stage (EG, Luc 48 h) IC50; >90% stage I–III gametocytes, ±SEM
Procedure: as §3
(§6) Gametocytocidal activity was determined using the luciferase reporter line (Reader et al., [2015]) to derive dose responses with two-fold serial drug dilutions for 48 h against early stage gametocytes (day 5 post-induction population, >90% stage I–III) and 10-fold serial drug dilutions for 72 h against late stage gametocytes (day 10 post-induction population, >90% late stage IV–V) (2% gametocytemia, 2% hematocrit), at 37°C under 90% N2, 5% CO2, and 5% O2 atmospheric conditions.

[6] = tested on: P. falciparum NF54 late stage gametocytes (>90% stage IV and V); experiment: Gametocytocidal luciferase reporter assay, late stage, 72 h; type: cell-based, Plasmodium falciparum
Procedure: as §3, §6

[7] = tested on: asexual P. falciparum NF54, Dd2, K1, W2; experiment: Asexual P. falciparum, metabolic (pLDH) and proliferative (SYBR Green I) platforms; type: cell-based; settings: Plasmodium falciparum; drug-sensitive and -resistant parasites, both assay platforms; read-out: IC50, asexual P. falciparum metabolic activity and proliferation
Procedure: Data analysis was performed using GraphPad Prism 7.
The in vitro activities of the new derivatives were determined against drug sensitive NF54 and multi-drug resistant Dd2, K1, and W2 intraerythrocytic asexual P. falciparum malaria parasite strains using both a metabolic (parasite LDH) and a proliferative (SYBR Green I fluorescence) assay readout (Table 1).

P. falciparum NF54 [8] = experiment: Metabolic (parasite LDH) assay, asexual ring stage parasites, 48 h; type: cell-based; settings: Plasmodium falciparum, pLDH, CQ-sensitive NF54
Procedure: as §3, §4

P. falciparum Dd2 = experiment: as above; type: cell-based; settings: Plasmodium falciparum, pLDH, Dd2 CQ, pyrimethamine resistant
Procedure: as §4

Cytotoxicity, MTT assay = type: cell-based; settings: Chinese hamster, CHO cells
Procedure: as §5

[9] = Plasmodium berghei, HepG2, 48 h, liver stage, HepG2 host cells, luciferase after 48 h, ±SD, read-out: P. berghei sporozoites IC50
[10] = Plasmodium falciparum, NF54, 72 h, read-out: Late Stage (LG, Luc 72 h) IC50, >90% stage IV and V gametocytes, ±SEM
[11] = read-out: Late Stage (LG, Luc 72 h) IC50, >90% stage IV and V gametocytes, ±SEM

| Compound | IC50 (P. falciparum K1) | IC50 (P. falciparum NF54 [3]) | IC50 (P. falciparum W2) | EC50 [4] | IC50 [5] | IC50 [6, 10] | IC50 [6, 11] | IC50 (P. falciparum NF54 [8]) | IC50 (P. falciparum Dd2) | EC50 (Cytotoxicity, MTT assay) | further results |
| --- | --- | --- | --- | --- | --- | --- | --- | --- | --- | --- | --- |
| CO[C@H]1O[C@@H]2O[C@@]3(C)CC[C@H]4[C@H](C)CC[C@@H]([C@H]1C)[C@@]24OO3 [Artemether 3, artemether] |  |  |  |  |  |  |  |  |  |  | IC50 [1, 9]: > 10000 nM; inhibition at 10 µM ([1]; Plasmodium berghei, Conc. 10 μM, read-out: P. berghei sporozoites Maximum inhibition %): 49.4% |
| O=C1C(O)=C([C@H]2CC[C@H](c3ccc(Cl)cc3)CC2)C(=O)c2ccccc21 [Atovaquone] |  |  |  |  |  |  |  |  |  |  | Emax ([1]; Plasmodium berghei, 48 h, two biological replicates listed in one cell, read-out: P.berghei-Luciferase Liver Stage Bioluminescence Assay: Maximum measured (%)): 92.9%; IC50 [1, 9]: 2.52 ± 0.997 nM; IC50 ([1]; Plasmodium berghei, two biological replicates listed in one cell, read-out: P.berghei-Luciferase Liver Stage Bioluminescence Assay: IC50): 3.23 nM; inhibition at 0.5 µM ([1]; Plasmodium berghei, Conc. 0.5 μM, read-out: P. berghei sporozoites Maximum inhibition %): 94.8 ± 2.76%; IC50 ([1]; two biological replicates listed in one cell, read-out: P.berghei-Luciferase Liver Stage Bioluminescence Assay: IC50): 1.81 nM; IC50 at 72 h ([2]; two biological replicates listed in one cell): > 250 nM; EC50 at 72 h ([2]; uninfected HepG2, ATP bioluminescence): > 250 nM; HepG2 Cytotoxicity Bioluminescence Assay: Maximum measured (%) (HepG2 cells): 16.9% and 8.57%; IC50 (HepG2 cells): > 250 nM |
| CCCCS(=O)(=O)N1CCN([C@@H]2O[C@@H]3O[C@@]4(C)CC[C@H]5[C@H](C)CC[C@@H]([C@H]2C)[C@@]35OO4)CC1 [Compound 13] | 3.1 ± 0.1 nM | 2.7 ± 0.6 nM | 4.4 ± 1 nM | 2720 nM | 21.5 ± 10.4 nM | 0.4 to 0.7 nM | 0.5 ± 0.3 nM |  |  |  |  |
| CCCCCCCCCCCCCCCCS(=O)(=O)N1CCN([C@@H]2O[C@@H]3O[C@@]4(C)CC[C@H]5[C@H](C)CC[C@@H]([C@H]2C)[C@@]35OO4)CC1 [Compound 14] |  |  |  |  |  |  |  |  |  |  | IC50 [7]: 50 to 100 nM |
| CC(=O)Nc1ccc(S(=O)(=O)N2CCN([C@@H]3O[C@@H]4O[C@@]5(C)CC[C@H]6[C@H](C)CC[C@@H]([C@H]3C)[C@@]46OO5)CC2)cc1 [Compound 15] | 3.4 ± 0.3 nM | 2.7 ± 0.7 nM | 5.4 ± 0.5 nM | 1950 nM | 8 ± 2.3 nM |  |  | 1.3 ± 0.5 nM | 3.54 ± 0.32 nM | > 177000 nM |  |
| C[C@H]1[C@H](N2CCN(S(=O)(=O)c3cccc(C(F)(F)F)c3)CC2)O[C@@H]2O[C@@]3(C)CC[C@H]4[C@H](C)CC[C@@H]1[C@@]24OO3 [Compound 16] | 5 nM | 3.4 ± 0.6 nM | 4.6 ± 0.2 nM | 431 nM | 19.7 ± 9.9 nM | 0.4 to 0.7 nM | 0.4 ± 0.3 nM | 1.13 ± 0.12 nM | 7.46 ± 1.07 nM | > 178000 nM |  |
| C[C@H]1[C@H](N2CCN(S(=O)(=O)c3cccc(F)c3)CC2)O[C@@H]2O[C@@]3(C)CC[C@H]4[C@H](C)CC[C@@H]1[C@@]24OO3 [Compound 17] | 4.85 ± 1.1 nM | 3.1 ± 0.2 nM | 4.6 ± 0.2 nM | 637 nM | 13.1 ± 7.2 nM | 0.4 to 0.7 nM | 0.6 ± 0.4 nM | 2 ± 0.6 nM | 6.2 ± 0.7 nM | > 196000 nM |  |
| C[C@H]1[C@H](N2CCN(S(=O)(=O)c3ccc(C(F)(F)F)cc3)CC2)O[C@@H]2O[C@@]3(C)CC[C@H]4[C@H](C)CC[C@@H]1[C@@]24OO3 [Compound 18] | 22 ± 2.7 nM | 13.9 ± 1.2 nM | 23.8 ± 1.4 nM | 217 nM | 89.7 ± 28.8 nM | 4.8 ± 4.2 nM |  | 15.3 ± 2 nM | 74.3 ± 6.42 nM | 154000 nM | IC50 [7]: 15 to 74 nM |
